# Experimental data as given in paper PMC3477293 (ACS chemical biology, 2012).
# “And” between values parts separate entries of the source, which are not always exact repeats. Equal entries are not always repeated. Where two headings read alike, the source gives them in different places.
# Key:
# AbaR [1] = target: T1, AbaR (Acinetobacter nosocomialis, UniProt A0A0N8YGA2); assay: AbaR agonism reporter gene; assay type: cell-based, Acinetobacter baumannii; conditions: for Activation [%]: AHLs at 100 µM, normalized to (R)-OH-dDHL at 100 µM (set to 100%), error ≤ ±10%; for EC50: EC50, AHLs over 200 pM – 200 µM; for AbaR agonism (in words): 100 µM
# T1 sequence (A0A0N8YGA2 whole entry): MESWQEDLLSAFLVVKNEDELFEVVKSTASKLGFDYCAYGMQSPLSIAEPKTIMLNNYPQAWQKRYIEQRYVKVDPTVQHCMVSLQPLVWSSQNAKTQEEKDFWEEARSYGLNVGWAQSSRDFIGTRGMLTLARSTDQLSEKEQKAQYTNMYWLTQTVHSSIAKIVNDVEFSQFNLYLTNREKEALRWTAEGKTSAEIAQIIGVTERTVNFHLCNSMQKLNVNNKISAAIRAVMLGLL
# AbaR [2] = target: T1, AbaR; conditions: identical A. baumannii reporter strain; ref 43 (Garner et al.); cited from earlier work
# A. baumannii (ΔabaI) [3] = assay: A. baumannii biofilm assay; assay type: cell-based, Acinetobacter baumannii; conditions: AHL at 100 µM, crystal violet, 24 h; for inhibition of biofilm formation (in words): biofilm recovery with (R)-OH-dDHL; for reduction of biofilm recovery: (R)-OH-dDHL added
# A. baumannii (ΔabaI) [4] = assay: A. baumannii motility assay on soft agar; assay type: cell-based, Acinetobacter baumannii; conditions: for concentration preventing migration (comparable to ΔabaI mutant): (R)-OH-dDHL supplemented 0.3% soft agar; for IC50: Acinetobacter baumannii, read-out: IC50 value, motility inhibition
# LasR = conditions: cited from earlier work
# AbaR [5] = target: T1, AbaR; assay: AbaR antagonism reporter gene; assay type: cell-based, Acinetobacter baumannii; conditions: for AbaR antagonistic activity (in words): primary screening data
# wild-type A. baumannii = assay: A. baumannii biofilm assay; assay type: cell-based; conditions: Acinetobacter baumannii, read-out: inhibition of biofilm formation
# [6] = AHLs over 10 nM – 100 µM against (R)-OH-dDHL at 0.70 µM
smiles,measurement,setting,value
"CCCCCCCCC[C@@H](O)CC(=O)N[C@H]1CCOC1=O [(R)-OH-dDHL, N-(3’-hydroxydodecanoyl)-L-HL, reference compound]",Activation [%],AbaR [1],100%
same,EC50,AbaR [1],0.7 µM and 0.699 µM
same,fold more active than (S)-OH-dDHL (AbaR activation),AbaR [1]; from EC50 values,~ 40 fold
same,EC50,AbaR [2],0.67 µM
"CCCCCCCCC[C@H](O)CC(=O)N[C@H]1CCOC1=O [(S)-OH-dDHL, N-(3’-hydroxydodecanoyl)-L-HL]",Activation [%],AbaR [1],90%
same,EC50,AbaR [1],29 µM and 28.9 µM
same,EC50,AbaR [2],0.82 µM
"CCCCCC(=O)CC(=O)N[C@H]1CCOC1=O [Compound 1, 3-oxo-octanoyl-HL]",inhibition of biofilm formation (in words),A. baumannii (ΔabaI) [3],inhibit biofilm formation to significant levels
same,AbaR agonism (in words),AbaR [1],limited AbaR agonism
same,concentration preventing migration (comparable to ΔabaI mutant),A. baumannii (ΔabaI) [4],less than 20 µM
same,LasR inhibition,LasR,50%
same,IC50,LasR; read-out: IC50 (LasR),0.11 µM
same,IC50,AbaR [5],2.91 µM
same,inhibition at 100 µM,AbaR [5],73%
CCCCCCCCCC(=O)CC(=O)N[C@H]1CCOC1=O [Compound 2],Activation [%],AbaR [1],62%
same,EC50,AbaR [1],7.57 µM
"CCCCCCC(=O)N[C@H]1CCOC1=O [Compound 4, heptanoyl-HL]",IC50,AbaR [5],13.7 µM
same,inhibition at 100 µM,AbaR [5],75%
"O=C(Cc1ccc(Br)cc1)N[C@H]1CCOC1=O [Compound 8, 4-bromo PHL]",IC50,AbaR [5],7.83 µM
same,inhibition at 100 µM,AbaR [5],71%
"CCCCCCCC(=O)NC1CCOC1=O (stereo not drawn) [Compound A3, octanoyl-HL]",Inhibition [%],"AbaR [5]; AHLs at 100 µM against (R)-OH-dDHL at 0.70 µM, error ≤ ±10%",60%
"CCCCCCCCCCCC(=O)NC1CCOC1=O (stereo not drawn) [Compound A5, dodecanoyl HL]",AbaR agonism (in words),AbaR [1],no agonistic activity
"CCCCCCCCCC(=O)NC1CCOC1=O (stereo not drawn) [Compound A7, decanoyl-HL]",AbaR agonism (in words),AbaR [1],limited AbaR agonism
same,Activation [%],AbaR [1],3%
"CCCCCCCCCCCCCC(=O)NC1CCOC1=O (stereo not drawn) [Compound A8, tetradecanoyl-HL]",AbaR agonism (in words),AbaR [1],limited AbaR agonism
same,Activation [%],AbaR [1],9%
"O=C(CCc1ccccc1)N[C@H]1CCOC1=O [Compound B10, phenylpropanoyl HL]",IC50,AbaR [5],11 µM
same,inhibition at 100 µM,AbaR [5],72%
O=C(Cc1ccc(F)cc1)N[C@H]1CCOC1=O [Compound C2],IC50,AbaR [5]; [6],> 25 µM
O=C(Cc1ccc(Cl)cc1)N[C@H]1CCOC1=O [Compound C5],inhibition at 100 µM,AbaR [5],78%
same,IC50,AbaR [5]; [6],16.7 µM
"O=C(Cc1cccc(Cl)c1)N[C@H]1CCOC1=O [Compound C6, 3-chloro PHL]",IC50,A. baumannii (ΔabaI) [4],~40 µM
same,IC50,AbaR [5],5.47 µM
same,inhibition at 100 µM,AbaR [5],83%
O=C(Cc1ccccc1Cl)N[C@H]1CCOC1=O [Compound C7],inhibition at 100 µM,AbaR [5],83%
same,IC50,AbaR [5]; [6],18.5 µM
"O=C(Cc1cccc(Br)c1)N[C@H]1CCOC1=O [Compound C8, 3-bromo PHL]",reduction of biofilm recovery,A. baumannii (ΔabaI) [3],~ 40%
same,inhibition of biofilm formation (in words),A. baumannii (ΔabaI) [3],inhibit biofilm formation to significant levels
same,concentration preventing migration (comparable to ΔabaI mutant),A. baumannii (ΔabaI) [4],less than 20 µM
same,IC50,A. baumannii (ΔabaI) [4],~7 µM
same,inhibition at 100 µM,wild-type A. baumannii,~40%
same,IC50,AbaR [5],5.06 µM
same,inhibition at 100 µM,AbaR [5],90%
same,AbaR antagonistic activity (in words),AbaR [5],moderately to strongly inhibitory
O=C(Cc1ccccc1Br)N[C@H]1CCOC1=O [Compound C9],IC50,AbaR [5],17.5 µM
same,inhibition at 100 µM,AbaR [5],97%
same,AbaR antagonistic activity (in words),AbaR [5],moderately to strongly inhibitory
"O=C(Cc1ccc(I)cc1)N[C@H]1CCOC1=O [Compound C10, 4-iodo PHL]",reduction of biofilm recovery,A. baumannii (ΔabaI) [3],~ 40%
same,inhibition of biofilm formation (in words),A. baumannii (ΔabaI) [3],inhibit biofilm formation to significant levels
same,IC50,A. baumannii (ΔabaI) [4],~70 µM
same,inhibition at 100 µM,wild-type A. baumannii,~40%
same,IC50,AbaR [5],7.06 µM
same,inhibition at 100 µM,AbaR [5],91%
"O=C(Cc1cccc(I)c1)N[C@H]1CCOC1=O [Compound C11, 3-iodo PHL]",concentration preventing migration (comparable to ΔabaI mutant),A. baumannii (ΔabaI) [4],less than 20 µM
same,IC50,A. baumannii (ΔabaI) [4],~15 µM
same,IC50,AbaR [5],2.32 µM
same,inhibition at 100 µM,AbaR [5],91%
"O=C(Cc1ccccc1I)N[C@H]1CCOC1=O [Compound C12, 2-iodo-PHL]",IC50,A. baumannii (ΔabaI) [4],~40 µM
same,IC50,AbaR [5],6.13 µM
same,inhibition at 100 µM,AbaR [5],80%
"O=C(Cc1cccc([N+](=O)[O-])c1)N[C@H]1CCOC1=O [Compound C14, 3-nitro PHL]",IC50,A. baumannii (ΔabaI) [4],~70 µM
same,IC50,AbaR [5],8 µM
same,inhibition at 100 µM,AbaR [5],70%
